Experiments:
[1] = tested on: B lymphocytes from patients suffering from chronic lymphoid leukemia (CLL); settings: for cell effect CLL 40 (survival): 4 hours of culture, cells not labeled with annexin or propidium iodide; for effect of the peptide on cell mortality, in words (relative to A1 WT IRS): 40 μM, 4 hours, FIG. 9
Method: Peripheral blood B lymphocytes taken from patients suffering from CLL and then purified on a Ficoll cushion and placed in culture are incubated in the presence of […] of the peptides described for FIG. 2. The percentage cell survival after 4 hours (gray column) or 24 hours (white column) of culture corresponds to the percentage of cells labeled neither with annexin nor with propidium iodide, evaluated by flow cytometry.
The CLL B lymphocytes were obtained from peripheral blood of 18 different patients suffering from chronic lymphoid leukemia. […] The samples were taken in the Brest hospital center, in the hematology department. The blood samples were taken after informing the patients and obtaining their informed consent.
The lymphocytes, mononuclear cells, were isolated from the heparinized peripheral blood samples by Ficoll-Hypaque (LSM 1077 lymphocyte, euro-bio) centrifugation. The red blood cells were lyzed by incubation for 10 min in VersaLyse Lysing Solution (Beckman Coulter). The mononuclear cells are obtained after 2 washes in culture medium (RPMI1640, Gibco BRL).
(§1) The cells were cultured in a culture medium composed either of RPMI 1640 (B lymphocytes) or of DMEM (COS7, HCT116, HGT1, 293, HeLa) containing 10% of FCS (fetal calf serum, 1% of penicillin-streptomycin and 1% of glutamine, Gibco BRL). The cells are distributed in a 24-well plate and cultured at 37° C. in a humid atmosphere under 5% CO2.
(§2) 400 μl of cell suspension (1×10^6 cells/ml) per well were treated for 4 h or 24 h with various concentrations of peptides. The test for activity of the peptides in the presence of emetine (FIG. 6) was carried out by preincubating the cells with 100 μM of emetine for one hour before the addition of peptide.
(§3) After the cells have been washed with PBS, they were analyzed using the Annexin V-FITC IP system according to the supplier's recommendations (Beckman Coulter).
The cells taken from patients suffering from chronic lymphoid leukemia were purified on a Ficoll cushion. […] The cells were placed in culture in RPMI medium in the presence of 10% FCS (fetal calf serum). The peptides were added directly to the culture medium. These peptides comprise the IRS sequence (the amino acid sequence of which is RYIRS) which is known to allow the penetration of peptides into B lymphocytes in culture (Dong et al., 2005). […] The cells which survive the treatment are those which are labeled neither with annexin nor with propidium iodide.

[2] = tested on: control T lymphocytes (patients suffering from hemochromatosis); assay: Cell survival of control T lymphocytes, annexin/propidium iodide flow cytometry; type: cell-based, human; settings: 40 μM peptide, 4 hours of culture, cells not labeled with annexin or propidium iodide
Method: FIG. 7: Activity of the A1WT peptide on cells of lymphocytic, lymphoid, gastric, colonic or renal origin The cells are prepared and placed in culture (see Materials and Methods) and then incubated for 4 H with the A1WT or A1 YALA peptide. The percentage cell survival corresponds to the percentage of cells labeled neither with annexin nor with propidium iodide, evaluated by flow cytometry. The names of the pathological conditions from which the patients from whom the samples are taken are suffering are indicated under the figure. The control T (L.T.) and B (L.B.) lymphocytes are taken from patients suffering from a disease not related to a lymphocytic pathological condition (hemochromatosis).
The control B lymphocytes and T lymphocytes originate from peripheral blood samples from patients suffering from hemochromatosis, provided by the CTS transfusion center in Brest. The B and T lymphocytes were isolated using the Rosett-Sep kit (Stemcell Technologies) according to the supplier's recommendations.
as §1, §2, §3

[3] = tested on: control T lymphocytes (patients suffering from hemochromatosis); assay: as above; type: cell-based, human; settings: 40 μM, 4 hours; FIG. 9
[4] = tested on: Jok cells (cell line derived from B lymphocytes); assay: Cell survival of Jok cells, annexin/propidium iodide flow cytometry; type: cell-based, human; settings: for cell effect Jok 20 (survival): 20 μM peptide; for cell effect Jok 20 (survival) / cell effect Jok 40 (survival): 4 hours of culture, cells not labeled with annexin or propidium iodide; for effect of the peptide on cell mortality, in words (relative to A1 WT IRS): 4 hours, FIG. 9; for cell effect Jok 40 (survival): 40 μM peptide
Method: The cells are treated as indicated for FIG. 7, with the CLL cells, control T lymphocytes and Jok lymphocytes, which are incubated with the A1 WT IRS peptide and derivatives thereof described in table 1. The Jok cells were incubated either with 20 μM (JOK 20) or with 40 μM (JOK 40) of each of the peptides. In the interests of simplifying the legend, the A1 WT IRS peptide is referred to as “WT”. Likewise, the derivatives thereof are referred to by the name of the mutations (A1 K3I IRS is referred to as “K3I”, for example).
as §1, §2, §3
The peptides were tested on B lymphocytes from patients suffering from chronic lymphoid leukemia, control T lymphocytes, or Jok cells (cell line derived from B lymphocytes). The experiment was repeated three times for each type of cell tested.

[5] = concentration not given (20 or 40 μM)

Molecule	cell survival with emetine alone ([1]; 100 μM emetine, after 4 H of incubation (from 97%), FIG. 6) [%]	cell effect CLL 40 (survival) ([1]; 40 μM peptide)	effect of the peptide on cell mortality, in words (relative to A1 WT IRS) [1]	cell effect LT 40 (survival) [2]	effect of the peptide on cell mortality, in words (relative to A1 WT IRS) [3]	cell effect Jok 20 (survival) [4]	effect of the peptide on cell mortality, in words (relative to A1 WT IRS) ([4]; 20 μM)	cell effect Jok 40 (survival) [4]	effect of the peptide on cell mortality, in words (relative to A1 WT IRS) ([4]; 40 μM)	effect on percentage cell survival ([1]; 40 μM peptide, 4 H and 24 H, FIG. 3)	action of the peptide on cell survival, in words, cell type not given ([1]; Example 6 (CLL cells, control T lymphocytes, Jok cells))	effect of the peptide on cell mortality, in words (relative to A1 WT IRS) [4, 5]
CC[C@H]1CN2CCc3cc(OC)c(OC)cc3[C@@H]2C[C@@H]1C[C@H]1NCCc2cc(OC)c(OC)cc21 [emetine, reference compound]	82	–	–	–	–	–	–	–	–	–	–	–
GGKYGRDFLLRFRYIRS [A1 R1, 2G IRS]	–	− (−: survival >50%)	abolishes the effect	− (−: survival >50%)	abolishes the effect	− (−: survival >50%)	abolishes the effect	+/− (+/−: survival between 25 and 50%)	only partially decreased	–	–	–
KKKYGRDFLLRFRYIRS [A1 R1, 2K IRS]	–	+ (+: survival <25%)	decreases the effect	+/− (+/−: survival between 25 and 50%)	decreases the effect	+/− (+/−: survival between 25 and 50%)	decreases the effect	+ (+: survival <25%)	the same effect as the A1 WT IRS peptide	–	–	–
KYGRDFLLRFRYIRS [A1 del2 IRS, deletion of the first two amino acids]	–	− (−: survival >50%)	loss of effect	− (−: survival >50%)	loss of effect	+/− (+/−: survival between 25 and 50%)	loss of effect	+ (+: survival <25%)	considerable mortality	–	–	–
RIIYDRHFLLNMRYIRS [BPSg WT IRS, reference compound]	–	–	–	–	–	–	–	–	–	the percentage survival did not decrease	–	–
RIKYDRKFLLDRRYIRS [BP2 I3K IRS, reference compound]	–	− (−: survival >50%)	–	− (−: survival >50%)	–	− (−: survival >50%)	–	− (−: survival >50%)	–	–	does not confer a better efficacy	–
RRIYGRDFLLRFRYIRS [A1 K3I IRS]	–	− (−: survival >50%)	loss of effect	–	–	+/− (+/−: survival between 25 and 50%)	partially	+ (+: survival <25%)	–	–	–	–
RRKYARDFLLRFRYIRS [A1 G5A-IRS]	–	+ (+: survival <25%)	slightly increases the effect	+ (+: survival <25%)	slightly increases the effect	+ (+: survival <25%)	–	+ (+: survival <25%)	–	–	–	slightly increases the effect
RRKYGHDFLLRFRYIRS [A1 R6H IRS]	–	+/− (+/−: survival between 25 and 50%)	abolishes the effect	+/− (+/−: survival between 25 and 50%)	abolishes the effect	+ (+: survival <25%)	–	+ (+: survival <25%)	–	–	–	the effect is potentiated
RRKYGKDFLLRFRYIRS [A1 R6K IRS]	–	+ (+: survival <25%)	partially decreases the action	+/− (+/−: survival between 25 and 50%)	partially decreases the action	+/− (+/−: survival between 25 and 50%)	–	+ (+: survival <25%)	–	–	–	partially decreases the action
RRKYGRAFLLFRFYIRS [A1 D7A IRS]	–	+ (+: survival <25%)	does not modify the action	+ (+: survival <25%)	does not modify the action	+ (+: survival <25%)	–	+ (+: survival <25%)	–	–	–	–
RRKYGRDFLLRKRYIRS [A1 F12K IRS]	–	− (−: survival >50%)	completely abolishes the action	− (−: survival >50%)	completely abolishes the action	− (−: survival >50%)	–	− (−: survival >50%)	–	–	–	completely abolishes the action
RRKYGRDFLLRWRYIRS [A1 F12W IRS]	–	+ (+: survival <25%)	does not modify the action	+ (+: survival <25%)	does not modify the action	+ (+: survival <25%)	–	+/− (+/−: survival between 25 and 50%)	–	–	–	does not modify the action
RRKYGREFLLRFRYIRS [A1 D7E IRS]	–	+ (+: survival <25%)	does not modify the action	+ (+: survival <25%)	does not modify the action	+ (+: survival <25%)	–	+ (+: survival <25%)	–	–	–	its effect is potentiated
RRKYSRDFLLRFRYIRS [A1 G5S IRS]	–	+ (+: survival <25%)	slightly increases the effect	+ (+: survival <25%)	slightly increases the effect	+ (+: survival <25%)	–	+ (+: survival <25%)	–	–	–	slightly increases the effect
RRRYGRDFLLRFRYIRS [A1 K3R IRS]	–	+ (+: survival <25%)	does not modify the effect	+ (+: survival <25%)	does not modify the effect	+ (+: survival <25%)	–	+ (+: survival <25%)	–	–	–	does not modify the effect

— patent publication US9745357B2, “Peptides used for treating cancers and, in particular, chronic lymphoid leukaemia” (Centre National de la Recherche Scientifique, priority 2009, dated 2017)
